Data published in the supplement of paper PMC10307832.

Assays:
Assay in all cases: relative viability (nuclei count vs DMSO), 5 days (fraction); higher = more cells survive
NCI-H1915 = tested on: NCI-H1915
Summary of the method: (§1)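 Dosing by pin tool came one day after lung cancer cell lines were seeded in 1536-well plates, using either one drug or a fixed anchor-drug dose plus five library-drug doses (not always all listed) in √10 steps. After 5 days, nuclei were counted on 4× images. Relative viability is treated-well nuclei count divided by vehicle-well nuclei count, and values are medians of duplicate plates.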

EPLC-272H = tested on: EPLC-272H
Summary of the method: as §1

SK-LU-1 = tested on: SK-LU-1
Summary of the method: as §1

EMC-BAC-2 = tested on: EMC-BAC-2
Summary of the method: as §1

NCI-H322M = tested on: NCI-H322M
Summary of the method: as §1

SW 1573 = tested on: SW 1573
Summary of the method: as §1

NCI-H2023 = tested on: NCI-H2023
Summary of the method: as §1

PC-14 = tested on: PC-14
Summary of the method: as §1

LCLC-97TM1 = tested on: LCLC-97TM1
Summary of the method: as §1

NCI-H2009 = tested on: NCI-H2009
Summary of the method: as §1

LXF-289 = tested on: LXF-289
Summary of the method: as §1

NCI-H2085 = tested on: NCI-H2085
Summary of the method: as §1

NCI-H1993 = tested on: NCI-H1993
Summary of the method: as §1

NCI-H2347 = tested on: NCI-H2347
Summary of the method: as §1

HOP-62 = tested on: HOP-62
Summary of the method: as §1

NCI-H1734 = tested on: NCI-H1734
Summary of the method: as §1

NCI-H2126 = tested on: NCI-H2126
Summary of the method: as §1

NCI-H647 = tested on: NCI-H647
Summary of the method: as §1

H3255 = tested on: H3255
Summary of the method: as §1

NCI-H727 = tested on: NCI-H727
Summary of the method: as §1

`COc1cc2nccc(Oc3ccc(NC(=O)Nc4cc(C)on4)c(Cl)c3)c2cc1OC` [Tivozanib] + CC1(C)CCC(c2ccc(Cl)cc2)=C(CN2CCN(c3ccc(C(=O)NS(=O)(=O)c4ccc(N[C@H](CCN5CCOCC5)CSc5ccccc5)c(S(=O)(=O)C(F)(F)F)c4)cc3)CC2)C1 [Navitoclax] (partner 0.5 µM) gave a relative viability (NCI-H1915; first compound 0.005 µM) of 0.756, a relative viability (NCI-H1915; first compound 0.01581 µM) of 0.765 and a relative viability (NCI-H1915; first compound 0.05 µM) of 0.806. It also gave a relative viability (NCI-H1915; first compound 0.1581 µM) of 0.838, a relative viability (NCI-H1915; first compound 0.5 µM) of 0.771 and a relative viability (EPLC-272H; first compound 0.005 µM) of 0.916. The relative viability (EPLC-272H; first compound 0.01581 µM) was 1.25, the relative viability (EPLC-272H; first compound 0.05 µM) was 1.34 and the relative viability (EPLC-272H; first compound 0.1581 µM) was 0.967. It also gave a relative viability (EPLC-272H; first compound 0.5 µM) of 0.911, a relative viability (SK-LU-1; first compound 0.005 µM) of 0.837 and a relative viability (SK-LU-1; first compound 0.01581 µM) of 0.862. For the same compound, the relative viability (SK-LU-1; first compound 0.05 µM) was 1.1, the relative viability (SK-LU-1; first compound 0.1581 µM) was 0.666 and the relative viability (SK-LU-1; first compound 0.5 µM) was 0.806. The relative viability (EMC-BAC-2; first compound 0.005 µM) was 1.27, the relative viability (EMC-BAC-2; first compound 0.01581 µM) was 1.11 and the relative viability (EMC-BAC-2; first compound 0.05 µM) was 1.21. It also gave a relative viability (EMC-BAC-2; first compound 0.1581 µM) of 1.14, a relative viability (EMC-BAC-2; first compound 0.5 µM) of 1.24 and a relative viability (NCI-H322M; first compound 0.005 µM) of 1.23. For the same compound, the relative viability (NCI-H322M; first compound 0.01581 µM) was 1.09, the relative viability (NCI-H322M; first compound 0.05 µM) was 1.28 and the relative viability (NCI-H322M; first compound 0.1581 µM) was 1.22. It also gave a relative viability (NCI-H322M; first compound 0.5 µM) of 1.14, a relative viability (SW 1573; first compound 0.005 µM) of 0.92 and a relative viability (SW 1573; first compound 0.01581 µM) of 0.911. The relative viability (SW 1573; first compound 0.05 µM) was 0.949, the relative viability (SW 1573; first compound 0.1581 µM) was 0.777 and the relative viability (SW 1573; first compound 0.5 µM) was 0.983. The relative viability (NCI-H2023; first compound 0.005 µM) was 0.909, the relative viability (NCI-H2023; first compound 0.01581 µM) was 1.02 and the relative viability (NCI-H2023; first compound 0.05 µM) was 1.04. For the same compound, the relative viability (NCI-H2023; first compound 0.1581 µM) was 0.962, the relative viability (NCI-H2023; first compound 0.5 µM) was 0.954 and the relative viability (PC-14; first compound 0.005 µM) was 0.98. For the same compound, the relative viability (PC-14; first compound 0.01581 µM) was 1.04, the relative viability (PC-14; first compound 0.05 µM) was 1.11 and the relative viability (PC-14; first compound 0.1581 µM) was 1.07. The relative viability (PC-14; first compound 0.5 µM) was 1, the relative viability (LCLC-97TM1; first compound 0.005 µM) was 0.412 and the relative viability (LCLC-97TM1; first compound 0.01581 µM) was 0.288. For the same compound, the relative viability (LCLC-97TM1; first compound 0.1581 µM) was 0.413, the relative viability (LCLC-97TM1; first compound 0.5 µM) was 0.425 and the relative viability (NCI-H2009; first compound 0.005 µM) was 1.11. It also gave a relative viability (NCI-H2009; first compound 0.01581 µM) of 1.16, a relative viability (NCI-H2009; first compound 0.05 µM) of 1.19 and a relative viability (NCI-H2009; first compound 0.1581 µM) of 1.24. The relative viability (NCI-H2009; first compound 0.5 µM) was 1.14, the relative viability (LXF-289; first compound 0.005 µM) was 0.916 and the relative viability (LXF-289; first compound 0.01581 µM) was 0.942. For the same compound, the relative viability (LXF-289; first compound 0.05 µM) was 0.915, the relative viability (LXF-289; first compound 0.1581 µM) was 1.01 and the relative viability (LXF-289; first compound 0.5 µM) was 0.926. The relative viability (NCI-H2085; first compound 0.005 µM) was 1.07, the relative viability (NCI-H2085; first compound 0.01581 µM) was 1.1 and the relative viability (NCI-H2085; first compound 0.05 µM) was 1.17. It also gave a relative viability (NCI-H2085; first compound 0.1581 µM) of 1.04, a relative viability (NCI-H2085; first compound 0.5 µM) of 1.14 and a relative viability (NCI-H1993; first compound 0.005 µM) of 0.86. The relative viability (NCI-H1993; first compound 0.01581 µM) was 0.857, the relative viability (NCI-H1993; first compound 0.05 µM) was 0.967 and the relative viability (NCI-H1993; first compound 0.1581 µM) was 0.668. For the same compound, the relative viability (NCI-H1993; first compound 0.5 µM) was 0.836, the relative viability (NCI-H2347; first compound 0.005 µM) was 0.735 and the relative viability (NCI-H2347; first compound 0.01581 µM) was 0.765. The relative viability (NCI-H2347; first compound 0.05 µM) was 0.847, the relative viability (NCI-H2347; first compound 0.1581 µM) was 0.735 and the relative viability (NCI-H2347; first compound 0.5 µM) was 0.804. The relative viability (HOP-62; first compound 0.005 µM) was 0.996, the relative viability (HOP-62; first compound 0.01581 µM) was 1.08 and the relative viability (HOP-62; first compound 0.05 µM) was 1.07. It also gave a relative viability (HOP-62; first compound 0.1581 µM) of 1.12, a relative viability (HOP-62; first compound 0.5 µM) of 0.844 and a relative viability (NCI-H1734; first compound 0.005 µM) of 0.865. For the same compound, the relative viability (NCI-H1734; first compound 0.01581 µM) was 0.804, the relative viability (NCI-H1734; first compound 0.05 µM) was 0.823 and the relative viability (NCI-H1734; first compound 0.1581 µM) was 0.734. The relative viability (NCI-H1734; first compound 0.5 µM) was 0.82, the relative viability (NCI-H2126; first compound 0.005 µM) was 0.842 and the relative viability (NCI-H2126; first compound 0.01581 µM) was 0.818. The relative viability (NCI-H2126; first compound 0.05 µM) was 0.963, the relative viability (NCI-H2126; first compound 0.1581 µM) was 0.635 and the relative viability (NCI-H2126; first compound 0.5 µM) was 0.857. It also gave a relative viability (NCI-H647; first compound 0.005 µM) of 1.12, a relative viability (NCI-H647; first compound 0.01581 µM) of 1.24 and a relative viability (NCI-H647; first compound 0.05 µM) of 1.21. The relative viability (NCI-H647; first compound 0.1581 µM) was 1.19, the relative viability (NCI-H647; first compound 0.5 µM) was 1.03 and the relative viability (H3255; first compound 0.005 µM) was 0.446. The relative viability (H3255; first compound 0.01581 µM) was 0.482, the relative viability (H3255; first compound 0.05 µM) was 0.495 and the relative viability (H3255; first compound 0.1581 µM) was 0.328. For the same compound, the relative viability (H3255; first compound 0.5 µM) was 0.516, the relative viability (NCI-H727; first compound 0.005 µM) was 0.343 and the relative viability (NCI-H727; first compound 0.01581 µM) was 0.49. It also gave a relative viability (NCI-H727; first compound 0.05 µM) of 0.412 and a relative viability (NCI-H727; first compound 0.5 µM) of 0.551.
